Data as given in patent US20250302972A1, “FORMULATION” (ENA Respiratory Pty Ltd, priority 2021, published 2025).
Several values for one entry are separate records, joined by “and”; a condition that tells them apart may be missing. Equal values may be shown once.

Experiments:
human TLR2 (hTLR2) [1] = biological target: T1, human TLR2 (hTLR2) (Homo sapiens, UniProt O60603); assay: Activation of human TLR2 IV: HEK-BLUE-hTLR2 cells; type: cell-based; conditions: FIG. 4
T1 construct: host or cells: HEK293 (HEK-BLUE-hTLR2)
T1 sequence (O60603 21-784): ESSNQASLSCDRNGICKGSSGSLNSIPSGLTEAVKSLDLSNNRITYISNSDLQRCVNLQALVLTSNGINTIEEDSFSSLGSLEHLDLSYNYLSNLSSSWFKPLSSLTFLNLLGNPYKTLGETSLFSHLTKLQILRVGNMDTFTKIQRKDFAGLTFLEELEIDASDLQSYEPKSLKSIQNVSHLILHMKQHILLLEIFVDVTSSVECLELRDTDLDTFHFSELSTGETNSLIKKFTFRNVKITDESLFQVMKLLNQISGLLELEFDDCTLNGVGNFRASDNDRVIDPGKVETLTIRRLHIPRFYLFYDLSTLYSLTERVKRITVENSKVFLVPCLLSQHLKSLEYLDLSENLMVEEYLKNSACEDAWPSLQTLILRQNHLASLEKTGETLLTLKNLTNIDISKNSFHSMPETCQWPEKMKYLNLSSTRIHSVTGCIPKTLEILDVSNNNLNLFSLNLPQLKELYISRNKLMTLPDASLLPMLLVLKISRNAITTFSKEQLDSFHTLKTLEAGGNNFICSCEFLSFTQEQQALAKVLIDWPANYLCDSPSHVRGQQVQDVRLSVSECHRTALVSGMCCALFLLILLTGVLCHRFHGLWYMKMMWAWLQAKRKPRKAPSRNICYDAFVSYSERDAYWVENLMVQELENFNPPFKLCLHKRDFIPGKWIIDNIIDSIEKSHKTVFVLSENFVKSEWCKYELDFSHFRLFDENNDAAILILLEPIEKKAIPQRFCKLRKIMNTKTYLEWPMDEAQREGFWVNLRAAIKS
T1 sequence (Q9Y2C9 32-796 partner): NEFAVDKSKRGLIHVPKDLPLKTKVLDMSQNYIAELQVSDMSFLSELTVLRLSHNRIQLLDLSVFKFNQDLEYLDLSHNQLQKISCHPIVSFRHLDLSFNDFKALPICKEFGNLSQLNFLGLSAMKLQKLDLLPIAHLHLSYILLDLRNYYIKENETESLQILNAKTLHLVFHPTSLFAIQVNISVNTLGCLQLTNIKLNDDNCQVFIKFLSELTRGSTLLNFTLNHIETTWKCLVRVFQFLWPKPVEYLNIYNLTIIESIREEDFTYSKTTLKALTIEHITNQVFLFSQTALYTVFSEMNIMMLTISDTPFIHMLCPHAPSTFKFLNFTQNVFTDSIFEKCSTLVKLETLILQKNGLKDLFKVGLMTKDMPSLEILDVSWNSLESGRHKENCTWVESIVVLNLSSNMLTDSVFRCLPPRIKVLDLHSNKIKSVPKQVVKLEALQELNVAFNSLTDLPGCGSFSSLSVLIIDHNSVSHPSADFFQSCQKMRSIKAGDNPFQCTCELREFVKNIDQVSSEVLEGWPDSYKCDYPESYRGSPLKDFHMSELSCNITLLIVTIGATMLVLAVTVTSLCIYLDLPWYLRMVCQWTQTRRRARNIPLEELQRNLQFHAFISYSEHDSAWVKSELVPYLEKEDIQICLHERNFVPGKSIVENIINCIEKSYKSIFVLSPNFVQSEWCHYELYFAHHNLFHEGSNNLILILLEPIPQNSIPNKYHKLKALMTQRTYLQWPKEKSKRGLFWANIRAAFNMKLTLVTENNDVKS
Description: HEK-BLUE-hTLR2 cells are designed for studying the stimulation of human TLR2 (hTLR2) by monitoring the activation of NF-kB. HEK-BLUE-hTLR2 cells are obtained by co-transfection of the hTLR2 and SEAP (secreted embryonic alkaline phosphatase) reporter genes into HEK293 cells. Stimulation with a TLR2 ligand activates NF-kB which induces the production of SEAP.
HEK-BLUE-hTLR2 cells were purchased from InvivoGen (San Diego, CA, USA). Cells were grown in DMEM supplemented with 10% FCS, 100 U/ml penicillin, 100 ug/ml streptomycin and 2 mM L-glutamine, 100 μg/mL Normocin in the presence of selection antibiotic purchased from InvivoGen and passaged when 70% confluence was reached per manufacturer's recommendation. […]

[2] = Stability IV: formulation pH at each time point; type: physicochemical
Description: Each compound was formulated in 0.9% w/w saline with addition of 0.1% w/w EDTA at about pH 5. The formulations were stored in the dark under accelerated conditions (40° C./75% RH) and reference formulations were stored at −80° C. At days 0, 9 and 28, samples were analysed by UHPLC and pH was measured.
The remaining ˜1 mL of solution in the clear glass HPLC vials was stored at 40° C./75% RH and was used to measure pH at each time point.
The formulation pH data recorded at each time point are compiled in Table 19. There was a general trend for the pH to increase with time but the effect was not pronounced.

[3] = Solubility in deionised water; type: physicochemical; conditions: DI water; read-out: concentration at which fully soluble in deionised (DI) water
Description: All spray drying feed solutions were prepared in deionised (DI) water. […] All other excipient components (mannitol, trehalose and HPMC) were also shown readily soluble in the DI water.

SARS-CoV-2 [4] = assay: A204 efficacy against SARS-CoV-2 in the hamster model - prophylaxis; type: in vivo
SARS-CoV-2 [5] = assay: A204 efficacy against SARS-CoV-2 in the hamster model - treatment; type: in vivo; conditions: 10 ug/ml in 100 ul, 8 hours post infection; to 7 dpi
human TLR2 (hTLR2) [6] = biological target: T1, human TLR2 (hTLR2); assay: Activation of human TLR2 II: HEK-BLUE-hTLR2 SEAP reporter assay; type: cell-based
human TLR2 = biological target: T2, human TLR2 (Homo sapiens, UniProt O60603); assay: HEK-Blue hTLR2 Dose Response (NF-κB SEAP reporter); type: cell-based; conditions: for stimulatory (agonist) activity for hTLR2: HEK-Blue hTLR2
T2 construct: expressed in transfected cells; host or cells: HEK-Blue hTLR2
T2 sequence (O60603 21-784): as the sequence (O60603 21-784) above
T2 sequence (Q9Y2C9 32-796 partner): as the sequence (Q9Y2C9 32-796 partner) above
Description: (§1) Toll-Like Receptor (TLR) stimulation is tested by assessing NF-κB activation in the TLR expressing cell lines. HEK-Blue h/mTLR2 cells have been stably transfected with human or mouse TLR2 and CD14. The activity of the test articles are tested on human and mouse TLR2, as potential agonists. The test articles are evaluated at seven concentrations and compared to control ligands (see list below). These steps are performed in triplicate.
[…] Starting from the 5 μg/mL working stock, a series of six 1:4 serial dilutions were made by mixing 100 μL of the previous highest dilution with 300 μL sterile PBS.
(§2) The secreted embryonic alkaline phosphatase (SEAP) reporter is under the control of a promoter inducible by the transcription factor NF-κB. This reporter gene allows the monitoring of signaling through the TLR, based on the activation of NF-κB. In a 96-well plate (200 μL total volume) containing the appropriate cells (50,000-75,000 cells/well), 20 μL of the test article or the positive control ligand (HKLC) is added to the wells. The media added to the wells is designed for the detection of NF-κB induced SEAP expression. After a 16-24-hour incubation the optical density (OD) is read at 650 nm on a Molecular Devices SpectraMax 340PC absorbance detector.

mouse TLR2 = biological target: T3, mouse TLR2 (Mus musculus, UniProt Q9QUN7); assay: HEK-Blue mTLR2 Dose Response (NF-κB SEAP reporter); type: cell-based
T3 construct: expressed in transfected cells; host or cells: HEK-Blue mTLR2
T3 sequence (Q9QUN7 25-784): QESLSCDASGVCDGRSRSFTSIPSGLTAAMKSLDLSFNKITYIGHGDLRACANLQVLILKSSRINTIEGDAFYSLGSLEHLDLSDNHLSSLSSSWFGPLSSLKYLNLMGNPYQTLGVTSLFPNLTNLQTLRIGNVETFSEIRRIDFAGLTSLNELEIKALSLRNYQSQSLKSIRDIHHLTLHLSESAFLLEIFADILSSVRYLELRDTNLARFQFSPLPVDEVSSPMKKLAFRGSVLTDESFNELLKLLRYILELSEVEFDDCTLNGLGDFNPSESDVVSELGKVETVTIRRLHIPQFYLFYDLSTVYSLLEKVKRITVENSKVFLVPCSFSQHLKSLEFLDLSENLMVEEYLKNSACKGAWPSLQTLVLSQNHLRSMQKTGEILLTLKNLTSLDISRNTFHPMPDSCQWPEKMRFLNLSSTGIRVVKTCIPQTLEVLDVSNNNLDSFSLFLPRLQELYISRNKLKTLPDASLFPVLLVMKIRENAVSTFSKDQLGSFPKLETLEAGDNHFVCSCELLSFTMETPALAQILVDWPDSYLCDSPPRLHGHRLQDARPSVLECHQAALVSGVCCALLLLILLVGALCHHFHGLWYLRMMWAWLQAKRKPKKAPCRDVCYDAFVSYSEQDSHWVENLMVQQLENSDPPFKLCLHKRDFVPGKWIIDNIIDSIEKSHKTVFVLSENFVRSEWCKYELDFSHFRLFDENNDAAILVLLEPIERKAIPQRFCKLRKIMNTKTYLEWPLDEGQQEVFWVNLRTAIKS
T3 sequence (Q9Y2C9 32-796 partner): as the sequence (Q9Y2C9 32-796 partner) above
Description: as §1
A 5 μg/mL working stock was then prepared for each compound from the 20 μg/mL dilution in sterile PBS. Starting from the 5 μg/mL working stock, a series of six 1:4 serial dilutions were made by mixing 100 μL of the previous highest dilution with 300 μL sterile PBS.
as §2

HEK-Blue Null1 cells = assay: HEK-Blue Null1 control cell line (control for human TLR2); type: cell-based; conditions: TLR2-free control cells
Description: as §2

HEK-Blue Null2 cells = assay: HEK-Blue Null2 control cell line (control for mouse TLR2); type: cell-based; conditions: TLR2-free control cells
Description: as §2

SMILES	activity at TLR2 (human TLR2 (hTLR2) [1])	formulation pH ([2]; 0-days)	formulation pH ([2]; 9-days, 40° C./75% RH)	formulation pH ([2]; 28-days, 40° C./75% RH)	optical density (650 nm), screenings 1-3 (human TLR2 (hTLR2) [6]; 0.1 ng/mL)	optical density (650 nm), screenings 1-3 (human TLR2 (hTLR2) [6]; 0.31 ng/mL)	optical density (650 nm), screenings 1-3 (human TLR2 (hTLR2) [6]; 0.5 ng/mL)	optical density (650 nm), screenings 1-3 (human TLR2 (hTLR2) [6]; 2.0 ng/mL)	optical density (650 nm), screenings 1-3 (human TLR2 (hTLR2) [6]; 7.8 ng/mL)	optical density (650 nm), screenings 1-3 (human TLR2 (hTLR2) [6]; 31.3 ng/mL)	optical density (650 nm), screenings 1-3 (human TLR2 (hTLR2) [6]; 125 ng/mL)	optical density (650 nm), Average (human TLR2; 0.12 pg/mL)	optical density (650 nm), screenings 1-3 (human TLR2; 0.12 pg/mL)	optical density (650 nm), Average (human TLR2; 0.49 pg/mL)	optical density (650 nm), screenings 1-3 (human TLR2; 0.49 pg/mL)	optical density (650 nm), Average (human TLR2; 1.95 pg/mL)	optical density (650 nm), screenings 1-3 (human TLR2; 1.95 pg/mL)	optical density (650 nm), Average (human TLR2; 7.81 pg/mL)	optical density (650 nm), screenings 1-3 (human TLR2; 7.81 pg/mL)	optical density (650 nm), Average (human TLR2; 31.25 pg/mL)	also measured
CCCCCCCCCCCCCCCC(=O)OCC[C@H](CSC[C@H](N)C(=O)N[C@@H](CO)C(=O)NCCOCCOCCOCCOCCOCCOCCOCCOCCOCCOCCOCCOCCOCCOCCOCCOCCOCCOCCOCCOCCOCCOCCOCCOCCOCCOCCOCCOCCC(=O)NCC(N)=O)OC(=O)CCCCCCCCCCCCCCC [A204]	significant activity at TLR2	5.0	5.2	5.2																	solubility [3]: ≤ 2000 µg/mL; weight change during infection (SARS-CoV-2 [4]; 50 ug/ml in 100 ul intranasal 24 hours prior to infection): lost no weight; lung viral loads versus mock treated animals (SARS-CoV-2 [4]; 7 dpi): slightly lower; viral RNA level versus mock treated animals (fold lower) (SARS-CoV-2 [4]; throat swabs, 2 days post infection, RT-qPCR): 32 fold; recovery of weight loss (SARS-CoV-2 [5]): recovered weight loss more rapidly than PBS treated
CCCCCCCCCCCCCCC(C)C(=O)OC[C@H](CSC[C@H](N)C(=O)N[C@@H](CO)C(=O)NCCOCCOCCOCCOCCOCCOCCOCCOCCOCCOCCOCCOCCOCCOCCOCCOCCOCCOCCOCCOCCOCCOCCOCCOCCOCCOCCOCCOCCC(=O)NCC(N)=O)OC(=O)C(C)CCCCCCCCCCCCCC (stereo partly drawn) [B4]		5.6	5.7	5.7	0.182 and 0.206 and 0.197	0.126 and 0.115	0.719 and 0.594 and 0.617	1.660 and 1.529 and 1.498	2.214 and 2.163	2.438 and 2.327 and 2.350	2.451 and 2.411 and 2.467	0.740	0.653 and 0.759 and 0.809	1.479	1.409 and 1.507 and 1.521	1.823	1.795 and 1.757 and 1.916	2.260	2.288 and 2.168 and 2.323	2.481	optical density (650 nm), screenings 1-3 (human TLR2; 31.25 pg/mL): 2.440 and 2.485 and 2.518; optical density (650 nm), Average (human TLR2; 125 pg/mL): 2.521; optical density (650 nm), screenings 1-3 (human TLR2; 125 pg/mL): 2.569 and 2.508 and 2.487; optical density (650 nm), Average (human TLR2; 500 pg/mL): 2.611; optical density (650 nm), screenings 1-3 (human TLR2; 500 pg/mL): 2.717 and 2.590 and 2.526; stimulatory (agonist) activity for hTLR2 (human TLR2): possesses stimulatory activity; stimulatory (agonist) activity for mTLR2 (mouse TLR2): possesses stimulatory activity; stimulatory response in HEK-Blue Null1 (human) cells (HEK-Blue Null1 cells): not observed; stimulatory response in HEK-Blue Null2 (mouse) cells (HEK-Blue Null2 cells): not observed
CCCCCCCCCCCCCCC(C)C(=O)OCC[C@H](CSC[C@H](N)C(=O)N[C@@H](CO)C(=O)NCCOCCOCCOCCOCCOCCOCCOCCOCCOCCOCCOCCOCCOCCOCCOCCOCCOCCOCCOCCOCCOCCOCCOCCOCCOCCOCCOCCOCCC(=O)NCC(N)=O)OC(=O)C(C)CCCCCCCCCCCCCC (stereo partly drawn) [B12]	significant activity at TLR2	5.6	5.7	5.7	0.239 and 0.202 and 0.208	0.116 and 0.132 and 0.137	0.585 and 0.558 and 0.559	1.429 and 1.308 and 1.638	2.187 and 2.257 and 2.302	2.422 and 2.423 and 2.449	2.409 and 2.564 and 2.615	1.362	1.443 and 1.313 and 1.329	1.860	1.892 and 1.785 and 1.902	2.045	2.149 and 2.008 and 1.979	2.411	2.420 and 2.446 and 2.366	2.457	optical density (650 nm), screenings 1-3 (human TLR2; 31.25 pg/mL): 2.492 and 2.500 and 2.380; optical density (650 nm), Average (human TLR2; 125 pg/mL): 2.568; optical density (650 nm), screenings 1-3 (human TLR2; 125 pg/mL): 2.608 and 2.541 and 2.555; optical density (650 nm), Average (human TLR2; 500 pg/mL): 2.471; optical density (650 nm), screenings 1-3 (human TLR2; 500 pg/mL): 2.584 and 2.404 and 2.426; stimulatory (agonist) activity for hTLR2 (human TLR2): possesses stimulatory activity; stimulatory (agonist) activity for mTLR2 (mouse TLR2): possesses stimulatory activity; stimulatory response in HEK-Blue Null1 (human) cells (HEK-Blue Null1 cells): not observed; stimulatory response in HEK-Blue Null2 (mouse) cells (HEK-Blue Null2 cells): not observed
